According to patent publication US10723723B2, “Substituted bicycle heterocyclic derivatives useful as ROMK channel inhibitors” (BRISTOL-MYERS SQUIBB COMPANY, priority 2016, dated 2020):

These compounds were tested against hROMK (human Kir1.1) (Homo sapiens (Human), UniProt P48048) (assay: Thallium Flux Assay (FluxOR, CHO T-Rex hROMK stable cell line)). Details: CHO T-Rex hROMK cells, 10-point concentration response curve; read-out: Human ROMK TH Flux IC50.
Type: cell-based

Chain of hROMK (human Kir1.1) (P48048 whole entry): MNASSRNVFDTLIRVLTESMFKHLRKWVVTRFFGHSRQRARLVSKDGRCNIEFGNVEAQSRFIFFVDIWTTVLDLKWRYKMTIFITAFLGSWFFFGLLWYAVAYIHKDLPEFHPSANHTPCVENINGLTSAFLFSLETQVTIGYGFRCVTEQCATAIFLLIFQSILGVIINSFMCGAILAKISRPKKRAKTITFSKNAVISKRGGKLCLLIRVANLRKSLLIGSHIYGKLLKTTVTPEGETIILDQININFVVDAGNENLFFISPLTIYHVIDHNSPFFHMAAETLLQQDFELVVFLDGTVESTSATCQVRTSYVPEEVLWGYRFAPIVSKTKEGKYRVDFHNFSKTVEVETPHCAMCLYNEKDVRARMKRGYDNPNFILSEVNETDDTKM

Row | Structure (SMILES) | IC50
1 | Cc1c([C@@H](O)CNCc2ccc(-n3cc(C(N)=O)cn3)nc2)ccc2c1COC2=O [Example 154, (R)-1-(5-(((2-hydroxy-2-(4-methyl-1-oxo-1,3-dihydroisobenzofuran-5-yl)ethyl)amino)methyl)pyridin-2-yl)-1H-pyrazole-4-carboxamide] | 1000 nM
2 | Cc1cc(-n2ncc(C(C)NC[C@H](O)c3ccc4c(c3C)COC4=O)n2)ncc1C#N (single isomer, unassigned) [Example 59] | 540 nM
3 | Cc1c(C(O)CN(C)Cc2cnc(-n3ncc4ncccc43)nc2)ccc2c1COC2=O (single isomer, unassigned) [Example 17-I, 5-(2-(((2-(1H-pyrazolo[4,3-b]pyridin-1-yl)pyrimidin-5-yl)methyl)(mehyl)amino)-1-hydroxyethyl)-4-methylisobenzofuran-1(3H)-one] | 1500 nM
4 | Cc1ncn(-c2ncc(CNC[C@H](O)c3ccc4c(c3C)COC4=O)cn2)n1 [Example 123, (R)-5-(1-hydroxy-2-(((2-(3-methyl-1H-1,2,4-ttiazol-1-yl)pyrimidin-5-yl)methyl)amino)ethyl)-4-methylisobenzofuran-1(3H)-one] | 210 nM
5 | Cc1cc(-n2[nH]cc(CNC[C@H](O)c3ccc4c(c3C)COC4=O)c2=O)ncc1C#N [Example 36, (R)-6-(4-(((2-hydroxy-2-(4-methyl-1-oxo-1,3-dihydroisobenzofuran-5-yl)ethyl)amino)methyl)-5-oxo-2,5-dihydro-1H-pyrazol-1-yl)-4-methylnicotinonitrile] | 390 nM
6 | CCc1nn(-c2ccc(CNC[C@H](O)c3ccc4c(c3C)COC4=O)cn2)cc1C#N [Example 103, (R)-3-ethyl-1-(5-(((2-hydroxy-2-(4-methyl-1-oxo-1,3-dihydroisobenzofuran-5-yl)ethyl)amino)methyl)pyridin-2-yl)-1H-pyrazole-4-carbonitrile] | 55.2 nM
7 | COc1cc(-n2cc(CNC[C@H](O)c3ccc4c(c3C)COC4=O)cn2)ccn1 [Example 80, (R)-5-(1-hydroxy-2-(((1-(2-methoxypyridin-4-yl)-1H-pyrazol-4-yl)methyl)amino)ethyl)-4-methylisobenzofuran-1(3H)-one] | 530 nM
8 | Cc1c([C@@H](O)CN(C)Cc2ccc(-c3ccc4oc(=O)n(C)c4c3)cn2)ccc2c1COC2=O (single isomer, unassigned) [Example 84] | 82 nM
9 | Cc1c([C@@H](O)CNCc2cnn(-c3cc(N4CCCC4)c(C#N)cn3)c2)ccc2c1COC2=O [Example 119, (R)-6-(4-(((2-hydroxy-2-(4-methyl-1-oxo-1,3-dihydroisobenzofuran-5-yl)ethyl)amino)methyl)-1H-pyrazol-1-yl)-4-(pyrrolidin-1-yl)nicotinonitrile] | 91 nM
10 | Cc1c([C@@H](O)CN(CCCC(F)(F)F)Cc2ccc(-c3ccc4oc(=O)n(C)c4c3)nc2)ccc2c1COC2=O [Example 163, (R)-5-(5-(((2-hydroxy-2-(4-methyl-1-oxo-1,3-dihydroisobenzofuran-5-yl)ethyl)(4,4,4-trifluorobutyl)amino)meth-yl)pyridin-2-yl)-3-methylbenzo[d]oxazol-2(3H)-one] | 260 nM
11 | Cc1cn(-c2ncc(CNC[C@H](O)c3ccc4c(c3C)COC4=O)cn2)c(C2CC2)n1 [Example 153, (R)-5-(2-(((2-(2-cyclopropyl-4-methyl-1H-imidazol-1-yl)pyrimidin-5-yl)methyl)amino)-1-hydroxyethyl)-4-methylisobenzofuran-1(3H)-one] | 520 nM
12 | Cc1c(C(CO)NCCc2cccc(-c3ccc(C#N)c(F)c3)c2)ccc2c1COC2=O (single isomer, unassigned) [Example 15-I, 3-fluoro-3′-(2-((2-hydroxy-1-(4-methyl-1-oxo-1,3-dihydroisobenzofuran-5-yl)ethyl)amino)ethy)-[1,1′-biphenyl]-4-carbonitrile] | 2000 nM
